From patent publication US20250146022A1, “STABILISING THE HUMAN SPINDLE BY KIFC1/HSET” (MAX-PLANCK-GESELLSCHAFT ZUR FOERDERUNG DER WISSENSCHAFTEN …, priority 2021, published 2025)

Test system: human oocytes
Assay: Live imaging of spindle assembly and chromosome segregation in human oocytes microinjected with KIFC1/HSET (mClover3-HSET)
Assay type: cell-based
Description: As shown in various Figures herein and specifically referred in Example 2, the bipolar meiotic spindle is assessed or detected by fluorescence microscopy or polarized light microscopy. In practice, the oocyte is not is typically not assessed by fluorescence microscopy, when the oocyte is used for in vitro fertilization at a later stage as this would require sacrificing the oocytes for analysis. The change in probability represents a characteristic of human oocytes when KIFC1/HSET is introduced into the human oocyte. […] Similarly, it is also expected that KIFC1/HSET stabilizes the mitotic spindle in human zygotes. The skilled person is aware of how to determine the duration of spindle pole instability and is provided with further guidance in Example 2 herein. Briefly, the duration of spindle pole instability refers to the duration of excessive spindle pole remodeling after early spindle bipolarization. In the case of human oocytes, the remodeling is largely the widening or fragmentation of spindle poles, which results in apolar or multipolar spindle. The start and end points are determined from the videos based on the first and last time points in which the spindle was not bipolar.
Anaphase onset refers to the time point before chromosome separation was first observed, as defined in the inventors previous study (2). […] Thus, there was a difference of 30.6% relative to the starting percentage of 44%. In other words, the human oocytes in FIG. 8D into which KIFC1/HSET has been introduced have a 1.7 fold (75%/44%) higher probability of aligned chromosomes at anaphase onset in comparison to an oocyte without introduced KIFC1/HSET.
In general, lagging chromosomes during anaphase are known in the art and are a consequence of chromosomes or chromatids not properly separating from each other. […] Lagging chromosomes are therefore a common cause of aneuploidy. […] Specifically, 33.3% of oocytes without introduced KIFC1/HSET had no lagging: chromosomes, while 62.5% of oocytes with introduced KIFC1/HSET had no lagging chromosomes. Thus, there was a difference of 29.5% based on the starting percentage of 33%. In other words, the human oocytes in FIG. 8E into which KIFC1/HSET has been introduced have a 1.9 fold (62.5%/33.3%) higher probability of aligned chromosomes at anaphase onset in comparison to an oocyte without introduced KIFC1/HSET.
To confirm that the lack of KIFC1/HSET is a major contributor to spindle instability in human oocytes, the inventors introduced KIFC1/HSET into human oocytes in FIG. 8. To visualize the dynamics of microtubules and chromosomes using live cell imaging, human oocytes were stained with 5′-SiR-tubulin and SPY555-DNA, respectively. […] The inventors also quantified the frequency of misaligned chromosomes at anaphase onset (FIG. 8D) and lagging chromosomes (FIG. 8E) in human oocytes non-injected and injected with KIFC1/HSET. […] Together, the inventors infer that the introduction of KIFC1/HSET stabilized the meiotic spindle and reduced the risk of aneuploidy in human oocytes.
The use of unfertilized human oocytes in this study was approved by the UK's National Research Ethics Service under the REC reference 11/EE/0346 (IRAS Project ID 84952) and the Ärztekammer Niedersachsen (Ethics Committee of Lower Saxony) under the reference 15/2016. Oocytes were collected from patients who underwent ovarian stimulation for intracytoplasmic sperm injection (ICSI) as part of their assisted reproduction treatment at the Bourn Hall Clinic or Kinderwunschzentrum Göttingen or Fertility Center Berlin. Only oocytes that were immature at the time of ICSI and thus unsuitable for the procedure were used in this study. All patients gave informed consent for their surplus oocyte(s) to be used in this study. Oocytes were cultured as previously described (1). Briefly, within 3-5 h after retrieval from ovaries, oocytes were transferred into G-MOPS (Vitrolife) supplemented with 10% FBS under paraffin oil at 37° C. […]

“KIFC1/HSET: Recombinant mClover3-tagged human kinesin-14 KIFC1/HSET protein (SEQ ID NO: 1), expressed in 293 cells, microinjected into human oocytes and zygotes” was tested, and the “fold higher probability of aligned chromosomes at anaphase onset vs oocyte without introduced KIFC1/HSET (FIG. 8E, lagging chromosomes)” value (62.5%/33.3%, FIG. 8E) was 1.9 fold, the “fold higher probability of aligned chromosomes at anaphase onset vs oocyte without introduced KIFC1/HSET” value (75%/44%, FIG. 8D) was 1.7 fold and the “difference in oocytes with no lagging chromosomes” value (based on the starting percentage of 33%) was 29.5%. The “time of early spindle bipolarization after onset of microtubule nucleation” value (injected human oocytes, non-injected 2.4 h, p=0.7197, FIG. 8B) was 2.65 h, the “duration of spindle pole instability” value (injected human oocytes, non-injected 10.3 h, p<0.0001, FIG. 8C) was 3.4 h and the “proportion of human oocytes with no lagging chromosome” value (oocytes with introduced KIFC1/HSET, without 33.3%, FIG. 8E) was 62.5%. For the same substance, the “proportion of human oocytes with aligned chromosomes at anaphase onset” value (oocytes with introduced KIFC1/HSET, without 44.4%, FIG. 8D) was 75% and the “difference in oocytes with aligned chromosomes at anaphase onset” value (relative to the starting percentage of 44%) was 30.6%.
